According to patent publication EP4620956A1, “PARP1 INHIBITORS” (Zhejiang Yangli Pharmaceutical Technology Co., Ltd., priority 2022, dated 2024):
pEC50, pIC50: −log10 of the molar value.

What was measured:
PARP2 [1] = target: T1, PARP2 (Homo sapiens, UniProt Q9UGN5); assay: Inhibition of PARP2 enzyme activity (chemiluminescence); assay type: biochemical
T1 construct: purchased BPS 80502

PARP1 = target: T2, PARP1 (Homo sapiens, UniProt P09874); assay: DNA trapping capability of PARP1 (HTRF); assay type: biochemical
T2 construct: purchased BPS 80501

MDA-MB-231 = assay: Anti-proliferative activity (CellTiter-Glo, 7 days), MDA-MB-231; assay type: cell-based, human
PARP3 = target: T3, PARP3 (Homo sapiens, UniProt Q9Y6F1); assay: Inhibition of PARP3 enzyme activity (chemiluminescence); assay type: biochemical
T3 construct: purchased BPS 80503
T3 sequence (Q9Y6F1 1-533): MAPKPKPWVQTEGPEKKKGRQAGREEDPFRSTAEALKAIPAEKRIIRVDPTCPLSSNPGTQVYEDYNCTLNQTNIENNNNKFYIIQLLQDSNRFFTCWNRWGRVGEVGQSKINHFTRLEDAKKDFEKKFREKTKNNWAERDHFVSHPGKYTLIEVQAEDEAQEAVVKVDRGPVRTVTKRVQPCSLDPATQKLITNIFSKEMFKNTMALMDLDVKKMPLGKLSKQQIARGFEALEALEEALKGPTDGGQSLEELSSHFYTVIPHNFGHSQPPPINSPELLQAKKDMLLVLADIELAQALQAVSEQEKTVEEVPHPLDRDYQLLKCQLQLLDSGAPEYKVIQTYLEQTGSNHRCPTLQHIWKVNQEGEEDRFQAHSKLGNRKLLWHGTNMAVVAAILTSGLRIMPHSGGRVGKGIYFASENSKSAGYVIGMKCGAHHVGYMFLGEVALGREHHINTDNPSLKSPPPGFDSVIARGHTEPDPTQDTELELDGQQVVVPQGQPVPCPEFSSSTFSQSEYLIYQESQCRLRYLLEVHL

PARP5a = target: T4, PARP5a (Homo sapiens, UniProt O95271); assay: Inhibition of PARP5a enzyme activity (chemiluminescence); assay type: biochemical
T4 construct: purchased BPS 80504

PARP6 = target: T5, PARP6 (Homo sapiens, UniProt Q2NL67); assay: Inhibition of PARP6 enzyme activity (chemiluminescence); assay type: biochemical
T5 construct: purchased BPS 80506

PARP7 = target: T6, PARP7 (Homo sapiens, UniProt Q7Z3E1); assay: Inhibition of PARP7 enzyme activity (chemiluminescent assay kit); assay type: biochemical
T6 construct: purchased BPS 80527
T6 sequence (Q7Z3E1 1-657): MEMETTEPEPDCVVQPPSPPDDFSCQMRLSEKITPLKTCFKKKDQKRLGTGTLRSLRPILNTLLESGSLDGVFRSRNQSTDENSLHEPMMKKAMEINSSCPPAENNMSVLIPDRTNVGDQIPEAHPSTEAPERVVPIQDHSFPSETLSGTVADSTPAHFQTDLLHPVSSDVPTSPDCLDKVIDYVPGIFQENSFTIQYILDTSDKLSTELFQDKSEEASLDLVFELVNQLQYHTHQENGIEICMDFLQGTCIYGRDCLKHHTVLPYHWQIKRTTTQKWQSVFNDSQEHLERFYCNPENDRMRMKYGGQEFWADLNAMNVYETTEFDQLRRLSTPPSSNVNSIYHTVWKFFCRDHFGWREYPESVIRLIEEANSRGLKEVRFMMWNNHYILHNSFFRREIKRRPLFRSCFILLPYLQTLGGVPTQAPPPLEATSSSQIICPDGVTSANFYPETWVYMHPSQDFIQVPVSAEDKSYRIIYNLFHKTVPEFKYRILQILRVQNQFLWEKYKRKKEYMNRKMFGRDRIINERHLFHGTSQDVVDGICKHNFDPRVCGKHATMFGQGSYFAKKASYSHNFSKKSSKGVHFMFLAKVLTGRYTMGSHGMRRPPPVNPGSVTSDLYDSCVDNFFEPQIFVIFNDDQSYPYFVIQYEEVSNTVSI

PARP11 = target: T7, PARP11 (Homo sapiens, UniProt Q9NR21); assay: Inhibition of PARP11 enzyme activity (chemiluminescent assay kit); assay type: biochemical
T7 construct: purchased BPS 80511
T7 sequence (Q9NR21 1-338): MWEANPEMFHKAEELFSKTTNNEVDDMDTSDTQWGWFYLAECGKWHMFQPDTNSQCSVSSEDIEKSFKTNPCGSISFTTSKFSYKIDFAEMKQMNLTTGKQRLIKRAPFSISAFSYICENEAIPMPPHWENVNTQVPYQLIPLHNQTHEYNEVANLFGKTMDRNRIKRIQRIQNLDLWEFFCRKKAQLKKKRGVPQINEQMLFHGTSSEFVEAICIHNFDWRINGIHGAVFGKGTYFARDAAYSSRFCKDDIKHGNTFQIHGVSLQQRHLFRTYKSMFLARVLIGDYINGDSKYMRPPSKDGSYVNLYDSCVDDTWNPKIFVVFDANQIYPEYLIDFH

PARP2 [2] = target: T1, PARP2; assay: PARP2-DNA trapping, fluorescence polarization (FP); assay type: biochemical
[3] = ratio relative to the PARP1 enzyme activity

T1 sequence (Q9UGN5 whole entry): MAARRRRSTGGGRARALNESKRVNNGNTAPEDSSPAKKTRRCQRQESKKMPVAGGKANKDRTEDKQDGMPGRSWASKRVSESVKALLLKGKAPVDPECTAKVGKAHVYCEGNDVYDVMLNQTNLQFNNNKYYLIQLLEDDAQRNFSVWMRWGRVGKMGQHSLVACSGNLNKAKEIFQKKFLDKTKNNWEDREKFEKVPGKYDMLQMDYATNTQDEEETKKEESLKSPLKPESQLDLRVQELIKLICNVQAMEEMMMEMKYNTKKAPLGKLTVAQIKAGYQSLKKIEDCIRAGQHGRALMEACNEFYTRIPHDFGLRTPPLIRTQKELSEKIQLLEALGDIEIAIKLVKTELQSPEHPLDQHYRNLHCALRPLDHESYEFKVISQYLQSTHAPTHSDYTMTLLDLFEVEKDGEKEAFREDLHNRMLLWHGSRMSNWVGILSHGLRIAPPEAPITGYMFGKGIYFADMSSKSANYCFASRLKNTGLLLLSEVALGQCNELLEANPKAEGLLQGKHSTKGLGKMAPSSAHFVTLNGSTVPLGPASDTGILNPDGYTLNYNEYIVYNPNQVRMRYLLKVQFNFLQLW
T5 sequence (Q2NL67 whole entry): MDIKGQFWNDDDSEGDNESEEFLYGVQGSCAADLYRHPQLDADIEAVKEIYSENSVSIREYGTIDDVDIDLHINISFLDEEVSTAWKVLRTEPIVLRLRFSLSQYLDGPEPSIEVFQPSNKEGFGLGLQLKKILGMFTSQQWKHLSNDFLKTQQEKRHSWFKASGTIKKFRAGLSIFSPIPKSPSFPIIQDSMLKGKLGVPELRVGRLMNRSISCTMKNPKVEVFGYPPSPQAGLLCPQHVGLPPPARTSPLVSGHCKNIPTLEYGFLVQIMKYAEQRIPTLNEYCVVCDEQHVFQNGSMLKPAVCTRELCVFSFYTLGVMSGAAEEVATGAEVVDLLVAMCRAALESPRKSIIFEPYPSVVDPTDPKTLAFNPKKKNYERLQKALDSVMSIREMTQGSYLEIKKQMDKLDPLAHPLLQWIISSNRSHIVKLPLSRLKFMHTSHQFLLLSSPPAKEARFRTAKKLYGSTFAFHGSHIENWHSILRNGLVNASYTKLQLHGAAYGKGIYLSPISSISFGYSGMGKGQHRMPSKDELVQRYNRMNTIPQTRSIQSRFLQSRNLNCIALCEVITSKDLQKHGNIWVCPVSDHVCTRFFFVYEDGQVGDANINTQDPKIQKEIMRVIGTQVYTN
T4 sequence (O95271 1001-1327): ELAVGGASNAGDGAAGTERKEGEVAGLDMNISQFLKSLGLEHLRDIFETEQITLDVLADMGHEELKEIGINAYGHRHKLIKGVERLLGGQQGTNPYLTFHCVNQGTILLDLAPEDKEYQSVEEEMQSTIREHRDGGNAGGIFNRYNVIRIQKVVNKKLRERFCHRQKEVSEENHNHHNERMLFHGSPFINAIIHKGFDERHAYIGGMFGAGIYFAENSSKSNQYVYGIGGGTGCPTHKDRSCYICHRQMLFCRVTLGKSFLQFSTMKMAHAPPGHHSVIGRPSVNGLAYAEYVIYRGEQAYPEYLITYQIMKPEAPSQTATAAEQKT
T2 sequence (P09874 whole entry): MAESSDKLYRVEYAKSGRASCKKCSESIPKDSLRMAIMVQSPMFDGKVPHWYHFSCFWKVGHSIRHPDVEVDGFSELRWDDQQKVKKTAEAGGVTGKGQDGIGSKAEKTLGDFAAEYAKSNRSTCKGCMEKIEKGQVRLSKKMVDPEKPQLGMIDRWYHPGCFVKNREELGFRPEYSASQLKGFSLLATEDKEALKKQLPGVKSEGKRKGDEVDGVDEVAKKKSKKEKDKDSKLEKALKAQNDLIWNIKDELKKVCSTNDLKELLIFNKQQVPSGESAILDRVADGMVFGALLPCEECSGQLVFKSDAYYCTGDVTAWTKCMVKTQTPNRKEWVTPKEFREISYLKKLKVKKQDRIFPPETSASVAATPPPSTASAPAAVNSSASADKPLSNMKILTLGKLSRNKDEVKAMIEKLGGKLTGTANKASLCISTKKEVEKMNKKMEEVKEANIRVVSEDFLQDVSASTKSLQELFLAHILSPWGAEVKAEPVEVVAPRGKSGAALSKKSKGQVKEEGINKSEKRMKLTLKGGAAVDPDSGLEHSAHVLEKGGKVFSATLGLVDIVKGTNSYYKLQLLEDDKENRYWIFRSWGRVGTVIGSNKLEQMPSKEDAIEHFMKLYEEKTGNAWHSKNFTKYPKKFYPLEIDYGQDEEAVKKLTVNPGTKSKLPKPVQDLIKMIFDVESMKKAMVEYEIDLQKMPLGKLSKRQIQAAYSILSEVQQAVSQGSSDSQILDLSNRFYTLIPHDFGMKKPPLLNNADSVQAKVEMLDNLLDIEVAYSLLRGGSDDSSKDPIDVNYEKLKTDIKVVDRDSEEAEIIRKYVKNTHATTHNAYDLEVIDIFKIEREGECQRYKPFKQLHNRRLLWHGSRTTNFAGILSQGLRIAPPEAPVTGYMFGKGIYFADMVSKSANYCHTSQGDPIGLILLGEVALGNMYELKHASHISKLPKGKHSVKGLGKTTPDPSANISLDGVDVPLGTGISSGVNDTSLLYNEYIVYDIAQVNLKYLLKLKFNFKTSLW

## [2H]C([2H])([2H])NC(=O)c1ccc(N2CCN(Cc3cnc4c(N)c(CC)c(=O)[nH]c4c3)CC2)c(F)n1 [Example 4, 5-(4-((8-Amino-7-ethyl-6-oxo-5,6-dihydro-1,5-naphthyridin-3-yl)methyl)piperazin-1-yl)-6-fluoro-N-(methyl-d3)picolinamide]
PARP2 [1]
  pIC50: 7.73
PARP1
  pEC50: 8.42
MDA-MB-231; BRCA1-normal MDA-MB-231 cell line, 10 µM
  inhibition on cell proliferation at the highest concentration: no detectable inhibition
MDA-MB-231; Homo sapiens, MDA-MB-231, 168 h, BRCA1-normal, 7 days, read-out: MDA-MB-231 IC50
  pIC50: < 5.00
PARP3; enzyme activity
  pIC50: 5.12
PARP3; [3]
  PARP3 multiple vs PARP1: 15,929
PARP5a; enzyme activity
  pIC50: 5.39
PARP5a; [3]
  PARP5a multiple vs PARP1: 8,467
PARP6; enzyme activity
  pIC50: < 5.00
PARP6; [3]
  PARP6 multiple vs PARP1: ∞
PARP7; enzyme activity
  pIC50: < 5.00
PARP7; [3]
  PARP7 multiple vs PARP1: ∞
PARP11; enzyme activity
  pIC50: 6.37
PARP11; [3]
  PARP11 multiple vs PARP1: 880
PARP2 [2]; PARP2, 0.25 hour
  Bottom: 4.3
  pEC50: 5.63
  Hillslope: 1.4
  Top: = 100.0
PARP2 [2]; PARP2, 0.5 hour
  Bottom: 1.0
  pEC50: 5.26
  Hillslope: 1.9
  Top: = 100.0
PARP2 [2]; PARP2, 1 hour
  Bottom: 0.8
  pEC50: < 5.00
  Hillslope: 2.1
  Top: = 100.0
PARP2 [2]; PARP2, 2 hour
  pEC50: < 5.00
PARP2 [2]; PARP2, 4 hour
  pEC50: < 5.00
PARP2 [2]; PARP2, 8 hour
  pEC50: < 5.00
PARP2 [2]; PARP2, 24 hour
  pEC50: < 5.00
PARP2 [2]; PARP2, 48 hour
  pEC50: < 5.00
